≈ marks a conversion by molar mass, not a printed value.
How the values were obtained:
Experiment in all cases: In vitro antibacterial evaluation: minimum inhibitory concentration (MIC), broth dilution method
Assay type in all cases: cell-based
[1] = system: Enterococcus sp.; conditions: broth dilution, 18 hours at 35° C.
Summary of the method: (§1)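 Values are minimum inhibitory concentrations, meaning the smallest antibiotic concentration that stops growth of the organism. They come from broth dilution in Muller-Hinton II […] per NCCLS guidance (M7-A2), using 5×10^5 CFU/mL and concentrations from 64 to 0.06 μg/mL.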

[2] = system: Staphylococcus sp.; conditions: strain SMITH GC 4543; broth dilution, 18 hours at 35° C.
Summary of the method: as §1

[3] = system: Streptococcus sp.; conditions: broth dilution, 18 hours at 35° C.
Summary of the method: as §1

[4] = system: Escherichia coli; conditions: broth dilution, 18 hours at 35° C.
[5] = Enterococcus faecalis (ATCC 29212)
[6] = Enterococcus faecalis (GC 2242)
[7] = Enterococcus faecalis (GC 2691)
[8] = Enterococcus faecalis (GC 3059)
[9] = Enterococcus faecalis (GC 4552)
[10] = Enterococcus faecalis (GC 4553)
[11] = Enterococcus faecalis (GC 4554)
[12] = Enterococcus faecalis (GC 6189)
[13] = Streptococcus agalactiae (GC 4564)
[14] = Streptococcus pneumoniae (ATCC 6301)
[15] = Streptococcus pneumoniae (GC 1894)
[16] = Streptococcus pneumoniae (GC 4565)
[17] = Streptococcus pyogenes (GC 4563)

Row | MIC Enterococcus avium (GC 4558) ([1]; Enterococcus avium (GC 4558)) [mg/L] | MIC Enterococcus faecalis (ATCC 29212) [1, 5] [mg/L] | MIC Enterococcus faecalis (GC 2242) [1, 6] [mg/L] | MIC Enterococcus faecalis (GC 2691) [1, 7] [mg/L] | MIC Enterococcus faecalis (GC 3059) [1, 8] [mg/L] | MIC Enterococcus faecalis (GC 4552) [1, 9] [mg/L] | MIC Enterococcus faecalis (GC 4553) [1, 10] [mg/L] | MIC Enterococcus faecium (GC 4557) ([1]; Enterococcus faecium (GC 4557)) [mg/L] | MIC Enterococcus faecalis (GC 4553) [1] [mg/L] | MIC Enterococcus faecium (GC 4557) [1] [mg/L] | MIC Staphylococcus aureus-SMITH (GC 4543) [2] [mg/L] | MIC Streptococcus agalactiae (GC 4564) [3, 13] [mg/L] | MIC Streptococcus pneumoniae (GC 1894) [3, 15] [mg/L] | MIC Streptococcus pyogenes (GC 4563) [3, 17] [mg/L] | MIC Streptococcus agalactiae (GC 4564) [3] [mg/L] | MIC Streptococcus pneumoniae (GC 1894) [3] [mg/L] | MIC Streptococcus pyogenes (GC 4563) [3] [mg/L] | MIC Escherichia coli (ATCC 25922) [4] [mg/L] | MIC Escherichia coli (GC 4559) [4] [mg/L] | MIC Escherichia coli (GC 4560) [4] [mg/L] | Structure (SMILES) | also measured
1 | 64 (≈ 62.3 µM) | >64 | 64 (≈ 62.3 µM) | >64 | >64 | >64 | 64 (≈ 62.3 µM) | 64 (≈ 62.3 µM) | 64 (≈ 62.3 µM) | 64 (≈ 62.3 µM) | 64 (≈ 62.3 µM) | 16 (≈ 15.6 µM) | 2 (≈ 1.95 µM) | 8 (≈ 7.78 µM) | 16 (≈ 15.6 µM) | 2 (≈ 1.95 µM) | 8 (≈ 7.78 µM) | >64 | >64 | 32 (≈ 31.1 µM) | CC(=O)Nc1cc(CC2NC(=O)C(C(C)c3ccccc3)NC(=O)CNC(=O)C(CO)NC(=O)C(C(O)C3CNC(=N)N3C3OC(CO)C(O)C(O)C3O)NC(=O)C(C(O)C3CNC(=N)N3)NC2=O)ccc1O (stereo not drawn) [Example 13, Cyclo[glycyl-β-methylphenylalanyl-3-acetamidotyrosyl-3-(2-iminoimidazolidin-4-yl)seryl-3-(3-hexopyranosyl-2-iminoimidazolidin-4-yl)serylseryl]] | MIC Enterococcus faecalis (GC 4554) [1, 11]: >64 mg/L; MIC Enterococcus faecalis (GC 6189) [1, 12]: >64 mg/L; MIC Enterococcus faecium (GC 2243) ([1]; Enterococcus faecium (GC 2243)): 64 mg/L (≈ 62.3 µM); MIC Enterococcus faecium (GC 4556) ([1]; Enterococcus faecium (GC 4556)): 64 mg/L (≈ 62.3 µM); MIC Enterococcus avium (GC 4558) [1]: 64 mg/L (≈ 62.3 µM); MIC Enterococcus faecalis (ATCC 29212) [1]: >64 mg/L; MIC Enterococcus faecalis (GC 2242) [1]: 64 mg/L (≈ 62.3 µM); MIC Enterococcus faecalis (GC 2691) [1]: >64 mg/L; MIC Enterococcus faecalis (GC 3059) [1]: >64 mg/L; MIC Enterococcus faecalis (GC 4552) [1]: >64 mg/L; MIC Enterococcus faecalis (GC 4554) [1]: >64 mg/L; MIC Enterococcus faecalis (GC 6189) [1]: >64 mg/L; MIC Enterococcus faecium (GC 2243) [1]: 64 mg/L (≈ 62.3 µM); MIC Enterococcus faecium (GC 4556) [1]: 64 mg/L (≈ 62.3 µM); MIC Streptococcus pneumoniae (ATCC 6301) [3, 14]: 4 mg/L (≈ 3.89 µM); MIC Streptococcus pneumoniae (GC 4565) [3, 16]: 4 mg/L (≈ 3.89 µM); MIC Streptococcus pneumoniae (ATCC 6301) [3]: 4 mg/L (≈ 3.89 µM); MIC Streptococcus pneumoniae (GC 4565) [3]: 4 mg/L (≈ 3.89 µM)
2 |  |  |  |  |  |  |  | 64 (≈ 63.1 µM) |  | 64 (≈ 63.1 µM) |  |  | 64 (≈ 63.1 µM) |  |  | 64 (≈ 63.1 µM) |  | 64 (≈ 63.1 µM) | 32 (≈ 31.6 µM) | 16 (≈ 15.8 µM) | CC(c1ccccc1)C1NC(=O)CNC(=O)C(CO)NC(=O)C(C(O)C2CNC(=N)N2C2OC(CO)C(O)C(O)C2O)NC(=O)C(C(O)C2CNC(=N)N2)NC(=O)C(Cc2ccc(O)c(NC=O)c2)NC1=O (stereo not drawn) [Example 18, Cyclo[glycyl-β-methylphenylalanyl-3-formamidotyrosyl-3-(2-iminoimidazolidin-4-yl)seryl-3-(3-hexopyranosyl-2-iminoimidazolidin-4-yl)serylseryl]] | 
3 | 64 (≈ 50.9 µM) | 64 (≈ 50.9 µM) | 64 (≈ 50.9 µM) | >64 | >64 | >64 | 32 (≈ 25.5 µM) | 32 (≈ 25.5 µM) | 32 (≈ 25.5 µM) | 32 (≈ 25.5 µM) | >64 | >64 | 64 (≈ 50.9 µM) | 64 (≈ 50.9 µM) | >64 | 64 (≈ 50.9 µM) | 64 (≈ 50.9 µM) | >64 | >64 | 32 (≈ 25.5 µM) | CC(c1ccccc1)C1NC(=O)CNC(=O)C(CO)NC(=O)C(C(O)C2CNC(=N)N2C2OC(CO)C(O)C(O)C2O)NC(=O)C(C(O)C2CNC(=N)N2)NC(=O)C(Cc2ccc(O)c(NC(=S)Nc3cc(C(F)(F)F)cc(C(F)(F)F)c3)c2)NC1=O (stereo not drawn) [Example 24, Cyclo[glycyl-β-methylphenylalanyl-3-[[[3,5-bis(trifluoromethyl)phenyl]carbamothioyl]amino]-tyrosyl-3-(2-iminoimidazolidin-4-yl)seryl-3-(3-hexopyranosyl-2-iminoimidazolidin-4-yl)-serylseryl]] | MIC Enterococcus faecalis (GC 4554) [1, 11]: >64 mg/L; MIC Enterococcus faecalis (GC 6189) [1, 12]: >64 mg/L; MIC Enterococcus faecium (GC 2243) ([1]; Enterococcus faecium (GC 2243)): 64 mg/L (≈ 50.9 µM); MIC Enterococcus faecium (GC 4556) ([1]; Enterococcus faecium (GC 4556)): 64 mg/L (≈ 50.9 µM); MIC Enterococcus avium (GC 4558) [1]: 64 mg/L (≈ 50.9 µM); MIC Enterococcus faecalis (ATCC 29212) [1]: 64 mg/L (≈ 50.9 µM); MIC Enterococcus faecalis (GC 2242) [1]: 64 mg/L (≈ 50.9 µM); MIC Enterococcus faecalis (GC 2691) [1]: >64 mg/L; MIC Enterococcus faecalis (GC 3059) [1]: >64 mg/L; MIC Enterococcus faecalis (GC 4552) [1]: >64 mg/L; MIC Enterococcus faecalis (GC 4554) [1]: >64 mg/L; MIC Enterococcus faecalis (GC 6189) [1]: >64 mg/L; MIC Enterococcus faecium (GC 2243) [1]: 64 mg/L (≈ 50.9 µM); MIC Enterococcus faecium (GC 4556) [1]: 64 mg/L (≈ 50.9 µM); MIC Streptococcus pneumoniae (ATCC 6301) [3, 14]: >64 mg/L; MIC Streptococcus pneumoniae (GC 4565) [3, 16]: >64 mg/L; MIC Streptococcus pneumoniae (ATCC 6301) [3]: >64 mg/L; MIC Streptococcus pneumoniae (GC 4565) [3]: >64 mg/L

Further lines, the compound ahead of its results:

Row | Structure (SMILES) | MIC Enterococcus avium (GC 4558) ([1]; Enterococcus avium (GC 4558)) [mg/L] | MIC Enterococcus faecalis (ATCC 29212) [1, 5] [mg/L] | MIC Enterococcus faecalis (GC 2242) [1, 6] [mg/L] | MIC Enterococcus faecalis (GC 2691) [1, 7] [mg/L] | MIC Enterococcus faecalis (GC 3059) [1, 8] [mg/L] | MIC Enterococcus faecalis (GC 4552) [1, 9] [mg/L] | MIC Enterococcus faecalis (GC 4553) [1, 10] [mg/L] | MIC Enterococcus faecium (GC 4557) ([1]; Enterococcus faecium (GC 4557)) [mg/L] | MIC Enterococcus faecalis (GC 4553) [1] [mg/L] | MIC Enterococcus faecium (GC 4557) [1] [mg/L] | MIC Staphylococcus aureus-SMITH (GC 4543) [2] [mg/L] | MIC Streptococcus agalactiae (GC 4564) [3, 13] [mg/L] | MIC Streptococcus pneumoniae (GC 1894) [3, 15] [mg/L] | MIC Streptococcus pyogenes (GC 4563) [3, 17] [mg/L] | MIC Streptococcus agalactiae (GC 4564) [3] [mg/L] | MIC Streptococcus pneumoniae (GC 1894) [3] [mg/L] | MIC Streptococcus pyogenes (GC 4563) [3] [mg/L] | MIC Escherichia coli (ATCC 25922) [4] [mg/L] | MIC Escherichia coli (GC 4559) [4] [mg/L] | MIC Escherichia coli (GC 4560) [4] [mg/L] | also measured
4 | CCCCCCC(=O)Nc1cc(CC2NC(=O)C(C(C)c3ccccc3)NC(=O)CNC(=O)C(CO)NC(=O)C(C(O)C3CNC(=N)N3C3OC(CO)C(O)C(O)C3O)NC(=O)C(C(O)C3CNC(=N)N3)NC2=O)ccc1O (stereo not drawn) [Example 16, Cyclo[glycyl-β-methylphenylalanyl-3-(heptanamido)tyrosyl-3-(2-iminoimidazolidin-4-yl)seryl-3-(3-hexopyranosyl-2-iminoimidazolidin-4-yl)serylseryl]] |  |  |  |  |  |  | 64 (≈ 58.3 µM) | 16 (≈ 14.6 µM) | 64 (≈ 58.3 µM) | 16 (≈ 14.6 µM) | 64 (≈ 58.3 µM) | 64 (≈ 58.3 µM) | 64 (≈ 58.3 µM) | 16 (≈ 14.6 µM) | 64 (≈ 58.3 µM) | 64 (≈ 58.3 µM) | 16 (≈ 14.6 µM) | 32 (≈ 29.1 µM) | 32 (≈ 29.1 µM) | 8 (≈ 7.28 µM) | 
5 | CC(c1ccccc1)C1NC(=O)CNC(=O)C(CO)NC(=O)C(C(O)C2CNC(=N)N2C2OC(CO)C(O)C(O)C2O)NC(=O)C(C(O)C2CNC(=N)N2)NC(=O)C(Cc2ccc(O)c(NC(=O)c3ccccc3)c2)NC1=O (stereo not drawn) [Example 17, Cyclo[glycyl-β-methylphenylalanyl-3-(benzamido)tyrosyl-3-(2-iminoimidazolidin-4-yl)seryl-3-(3-hexopyranosyl-2-iminoimidazolidin-4-yl)serylseryl]] | 64 (≈ 58.7 µM) | >64 | >64 | >64 | >64 | >64 | >64 | 64 (≈ 58.7 µM) | >64 | 64 (≈ 58.7 µM) | >64 | >64 | 64 (≈ 58.7 µM) | >64 | >64 | 64 (≈ 58.7 µM) | >64 | 64 (≈ 58.7 µM) | 32 (≈ 29.4 µM) | 16 (≈ 14.7 µM) | MIC Enterococcus faecalis (GC 4554) [1, 11]: >64 mg/L; MIC Enterococcus faecalis (GC 6189) [1, 12]: >64 mg/L; MIC Enterococcus faecium (GC 2243) ([1]; Enterococcus faecium (GC 2243)): >64 mg/L; MIC Enterococcus faecium (GC 4556) ([1]; Enterococcus faecium (GC 4556)): 64 mg/L (≈ 58.7 µM); MIC Enterococcus avium (GC 4558) [1]: 64 mg/L (≈ 58.7 µM); MIC Enterococcus faecalis (ATCC 29212) [1]: >64 mg/L; MIC Enterococcus faecalis (GC 2242) [1]: >64 mg/L; MIC Enterococcus faecalis (GC 2691) [1]: >64 mg/L; MIC Enterococcus faecalis (GC 3059) [1]: >64 mg/L; MIC Enterococcus faecalis (GC 4552) [1]: >64 mg/L; MIC Enterococcus faecalis (GC 4554) [1]: >64 mg/L; MIC Enterococcus faecalis (GC 6189) [1]: >64 mg/L; MIC Enterococcus faecium (GC 2243) [1]: >64 mg/L; MIC Enterococcus faecium (GC 4556) [1]: 64 mg/L (≈ 58.7 µM); MIC Streptococcus pneumoniae (ATCC 6301) [3, 14]: >64 mg/L; MIC Streptococcus pneumoniae (GC 4565) [3, 16]: >64 mg/L; MIC Streptococcus pneumoniae (ATCC 6301) [3]: >64 mg/L; MIC Streptococcus pneumoniae (GC 4565) [3]: >64 mg/L

From patent US8247211B2, “Glycopeptide antibiotics” (American Cyanamid Company, priority 2001, dated 2012)
